Experimental findings from US3984554A, “Animal fodder compositions containing a 4-amino-pyrimido-( 4,5,b)-quinoxaline-5,10-dioxide and method of using same” (Bayer Aktiengesellschaft, priority 1970, dated 1976) are described below.

For orientation: MIC means the lowest concentration found to suppress growth. A higher MIC goes with weaker potency.

The test system of one experiment is Escherichia coli A 261. In words: Minimum inhibitory concentration (MIC) in the plate test. The format is cell-based. The settings on record: A261, pH 7.4. An excerpt: (§1) The compounds according to the invention are effective against Gram-negative and Gram-positive bacteria. Favorable inhibition values are obtained in the plate test (Table 1) against staphylococci and streptococci which are Gram-positive bacteria, and against enterobacteria (for example Escherichia coli, Proteus and Klebsiella) which are Gram-negative bacteria.
(§2) Minimum inhibitory concentration (MIC) in the plate test:
(§3) The medium used had the following composition
(§4) Disodium phosphate 2.0 g
(§5) Adenine sulphate 0.01 g
(§6) Guanine hydrochloride 0.01 g
(§7) 1000 ml of distilled water
(§8) pH value of the medium:
(§9) Minimum inhibitory concentrations in γ/ml

The next experiment concerns Escherichia coli C 165. The experiment is described as above. The format is cell-based. Particulars: C165, pH 7.4.
Description: as §1, §2, §3, §4, §5, §6, §7, §8, §9

The test system of a further experiment is Klebsiella 8085. Described as above. The settings on record: pH 7.4. The format is cell-based.
Description: as §1, §2, §3, §4, §5, §6, §7, §8, §9

Another experiment concerns Proteus vulgaris. Described as above. Format: cell-based. Particulars: pH 7.4.
Description: as §1, §2, §3, §4, §5, §6, §7, §8, §9

Experiment [1] relates to Pseudomonas aeruginosa Bonn. Described as above. Particulars: pH 7.4. The format is cell-based.
Description: as §1, §2, §3, §4, §5, §6, §7, §8, §9

The test system of experiment [2] is Staphylococcus aureus 133. The description is as above. The settings on record: pH 7.4. Format: cell-based.
Description: as §1, §2, §3, §4, §5, §6, §7, §8, §9

The subject of a further experiment is Streptococcus pyogenes W. The description is as above. Particulars: pH 7.4. The format is cell-based.
Description: as §1, §2, §3, §4, §5, §6, §7, §8, §9

Experiment [3] is described as follows: Chick fattening experiment (fodder additive). Format: in vivo. Particulars: chicks, 20 ppm in fodder; for Ratio of total weight increase/control: control 100.0. An excerpt:
The good effectiveness of the compounds according to the invention as fodder additives can be seen from the chick fattening experiment described below (Table 2).
The substances, ground with the fodder, were fed to one-day old chicks. The feeding lasted for seven weeks. Table 2 below gives the experimental data for the compound obtainable according to Example 2, for each of the 7 weeks.

SMILES strings stand for the structures. Converted amounts (≈) assume the structure as drawn.

`CNc1ncnc2c1[n+]([O-])c1ccccc1[n+]2[O-]` [Example 1, 4-methylamino-pyrimido-(4,5,b)-quinoxaline-5,10-dioxide]: the MIC with Escherichia coli A 261 was found to be 5 µg/mL (≈ 20.6 µM); with Escherichia coli C 165, 5 µg/mL (≈ 20.6 µM); in the experiment with Klebsiella 8085, 5 µg/mL (≈ 20.6 µM); against Proteus vulgaris, 5 µg/mL (≈ 20.6 µM); in experiment [1], 50 µg/mL (≈ 206 µM); in experiment [2], 2.5 µg/mL (≈ 10.3 µM). Moreover, the MIC against Streptococcus pyogenes W was 20 µg/mL (≈ 82.2 µM).
As for `CCCCNc1ncnc2c1[n+]([O-])c1ccccc1[n+]2[O-]` [Example 5], the MIC in experiment [2] came out at 10 µg/mL (≈ 35 µM); with Streptococcus pyogenes W, 20 µg/mL (≈ 70.1 µM).
For the compound `CC(C)Nc1ncnc2c1[n+]([O-])c1ccccc1[n+]2[O-]` [Example 4], the MIC in the experiment on Escherichia coli A 261 is 100 µg/mL (≈ 369 µM); with Escherichia coli C 165, 100 µg/mL (≈ 369 µM); in the experiment on Proteus vulgaris, 100 µg/mL (≈ 369 µM); in experiment [1], 150 µg/mL (≈ 553 µM); in experiment [2] it was 10 µg/mL (≈ 36.9 µM); with Streptococcus pyogenes W it was 20 µg/mL (≈ 73.7 µM).
On to `CCCNc1ncnc2c1[n+]([O-])c1ccccc1[n+]2[O-]` [Example 3], for which the MIC with Escherichia coli A 261 worked out at 100 µg/mL (≈ 369 µM); with Escherichia coli C 165, 100 µg/mL (≈ 369 µM); against Klebsiella 8085 it was 100 µg/mL (≈ 369 µM); in the experiment with Proteus vulgaris it was 100 µg/mL (≈ 369 µM); in experiment [1], 150 µg/mL (≈ 553 µM); in experiment [2] it was 10 µg/mL (≈ 36.9 µM). In the experiment with Streptococcus pyogenes W, this compound came in with an MIC of 20 µg/mL (≈ 73.7 µM).
`CCNc1ncnc2c1[n+]([O-])c1ccccc1[n+]2[O-]` [Example 2]: the MIC against Escherichia coli A 261 stood at 20 µg/mL (≈ 77.7 µM); with Escherichia coli C 165 it was 160 µg/mL (≈ 622 µM); against Klebsiella 8085, 10 µg/mL (≈ 38.9 µM); with Proteus vulgaris, 10 µg/mL (≈ 38.9 µM); in experiment [1] it was 150 µg/mL (≈ 583 µM); in experiment [2] it was 5 µg/mL (≈ 19.4 µM). In the experiment on Streptococcus pyogenes W, this compound had a minimal inhibitory concentration (MIC) of 20 µg/mL (≈ 77.7 µM). Moreover, the Total weight increase in experiment [3] (week 1, control 84) is on record as 92 g; in experiment [3] (week 2, control 248), 262 g; in experiment [3] (week 3, control 429), 466 g; in experiment [3] (week 4, control 607), 678 g; in experiment [3] (week 5, control 922), 993 g; in experiment [3] (week 6, control 1250), 1310 g. In experiment [3] (week 7, control 1479), this compound returned a Total weight increase of 1574 g. Besides, the “Ratio of total weight increase/control” value in experiment [3] (week 1) is given as 109.5%; in experiment [3] (week 2), 105.6%; in experiment [3] (week 3) it was 108.6%; in experiment [3] (week 4), 111.7%; in experiment [3] (week 5), 107.7%; in experiment [3] (week 6), 104.8%. The “Ratio of total weight increase/control” value in experiment [3] (week 7) came out at 106.4%.
In the case of `[O-][n+]1c2ccccc2[n+]([O-])c2c(NCCO)ncnc21` [Example 7], the MIC against Escherichia coli A 261 is 100 µg/mL (≈ 366 µM); against Escherichia coli C 165, 100 µg/mL (≈ 366 µM); against Klebsiella 8085 it was 150 µg/mL (≈ 549 µM); in the experiment with Proteus vulgaris, 100 µg/mL (≈ 366 µM); in experiment [1], 100 µg/mL (≈ 366 µM); in experiment [2], 100 µg/mL (≈ 366 µM). Besides, the MIC with Streptococcus pyogenes W was 10 µg/mL (≈ 36.6 µM).
In turn, `[O-][n+]1c2ccccc2[n+]([O-])c2c(NC3CCCCC3)ncnc21` [Example 6] came in with an MIC in experiment [2] of 10 µg/mL (≈ 32.1 µM).
